For 4 compounds, ED50 of cytotoxicity, tumor development and sarcoma tumor growth results are on record in patent publication US6596755B2 (Dabur Research Foundation, priority 2001, dated 2003).

For one experiment, the system named is L132 Lung. Description: three day MTT cytotoxicity assay, L132. The experiment is classed as cell-based, human. As to conditions: Standard (DMSO control), 72 hours. The method, then:
(§1) Briefly, a three day MTT cytotoxicity assay was performed, which is based on the principle of uptake of MTT (3-(4,5-dimethylthiazol-2-yl)-2,5-diphenyl tetrazolium bromide), a tetrazolium salt, by the metabolically active cells where it is metabolized by active mitochondria into a blue colored formazan product that is read spectrophoto-metrically. MTT was dissolved in phosphate buffered saline with a pH of 7.4 to obtain an MTT concentration of 5 mg/ml; the resulting mixture was filtered through a 0.22 micron filter to sterilize and remove a small amount of insoluble residue. For each type of tumor cell, 20,000 to 50,000 cells were seeded in a 96-well culture plate and incubated with the formulation or standard in a CO2 incubator for […]. […] The assay was terminated after 72 hours by adding 100 ug (20 ul) of MTT to each well, then incubating for additional one hour, and finally adding 50 ul of 10% SDS-0.01N HCl to each well to lyse the cells and dissolve formazan. After incubating for one hour, the plate was read spectrophoto-metrically at 540 nm and the percentage cytotoxicity calculated.

In the next experiment the test system is U87MG Glioblastoma. Description: three day MTT cytotoxicity assay, U87MG. As to conditions: Standard (DMSO control), 72 hours. The experiment is classed as cell-based, human. As for the experimental part: as §1
Another experiment relates to Molt 4 Leukemia. Description: three day MTT cytotoxicity assay, Molt 4. The experiment is classed as cell-based, human. As to conditions: Standard (DMSO control), 72 hours. As for the experimental part: as §1
In the next experiment the test system is PTC Colon. Description: three day MTT cytotoxicity assay, PTC. The conditions noted are these: Standard (DMSO control), 72 hours. The experiment is classed as cell-based, human. The method, then:
as §1

The test system of the next experiment is KB Oral. Description: three day MTT cytotoxicity assay, KB. The experiment is classed as cell-based, human. The conditions noted are these: Standard (DMSO control), 72 hours. The method, then: as §1
The next experiment deals with Miapaca2 Pancreas. Description: three day MTT cytotoxicity assay, Miapaca2. The experiment is classed as cell-based, human. As to conditions: Standard (DMSO control), 72 hours. The method, then:
as §1

The subject of the next experiment is DU145 Prostate. Description: three day MTT cytotoxicity assay, DU145. The experiment is classed as cell-based, human. The conditions noted are these: Standard (DMSO control), 72 hours. The method, then:
as §1

The subject of a further experiment is sarcoma 180 cells. The conditions noted are these: injected into mice along with sarcoma 180 cells; cited from earlier work.
Another experiment deals with sarcoma tumor. The conditions noted are these: in vivo; cited from earlier work.

Structures are written as SMILES. Some results are limits rather than exact numbers.

For `COC(=O)C1CCC(=O)N1C(O)C(C)=O` (centres unmarked) [MGC1], the ED50 of cytotoxicity is >5000 µM in the experiment with L132 Lung; 2250 ± 500 µM in the experiment with U87MG Glioblastoma; 1500 ± 400 µM in the experiment on Molt 4 Leukemia; 3700 ± 1400 µM in the experiment on PTC Colon; 1700 ± 500 µM in the experiment on KB Oral; 4200 ± 1300 µM in the experiment on Miapaca2 Pancreas. This compound yielded an ED50 of cytotoxicity in the experiment with DU145 Prostate of 1700 ± 600 µM.

Consider `CCOC(=O)C1CCC(=O)N1C(O)C(C)=O` (centres unmarked) [MGC4], for which the ED50 of cytotoxicity with L132 Lung is >5000 µM; in the experiment with U87MG Glioblastoma, 2400 ± 500 µM; with Molt 4 Leukemia, 1500 ± 200 µM; in the experiment with PTC Colon it was 3800 ± 1100 µM; with KB Oral, 1550 ± 300 µM; with Miapaca2 Pancreas it was 4200 ± 1100 µM. The same compound showed an ED50 of cytotoxicity with DU145 Prostate of 1800 ± 300 µM.

As for `CC(=O)OC(C(C)=O)N1C(=O)CCC1C(=O)OCc1ccccc1` (centres unmarked) [MGC7], the ED50 of cytotoxicity is >5000 µM in the experiment on L132 Lung; 1840 ± 600 µM with U87MG Glioblastoma; 1500 ± 200 µM in the experiment on Molt 4 Leukemia; 2400 ± 500 µM with PTC Colon; 1850 ± 600 µM in the experiment on KB Oral; 2400 ± 1000 µM with Miapaca2 Pancreas. For the same compound, the ED50 of cytotoxicity in the experiment with DU145 Prostate is 850 ± 300 µM.

As to `CC(=O)C=O` [Methylglyoxal, 2-oxopropanal], in the experiment on sarcoma 180 cells, the tumor development entry is recorded as “no tumor developed”. In addition, the sarcoma tumor growth entry with sarcoma tumor is listed as “significantly inhibited”.
